Assay results: patent US20250170090A1, “METHOD FOR PREVENTING OR TREATING DISEASE OR DISORDER ASSOCIATED WITH ANTINEOPLASTIC AGENT” (ONQUALITY PHARMACEUTICALS CHINA LTD., priority 2022, published 2025)
Where two headings read alike, the source gives them in different places.

Tests used:
HUVEC cells = assay: CCK-8 cell viability: alleviation of proliferative toxicity of anti-tumor agents on HUVEC cells (Tables 7-1, 7-2); type: cell-based; settings: Homo sapiens, 24 h, NO-NSAID 100 μM, percentage increase in viable cells vs anti-tumor agent alone, read-out: Response rate % (average)
Method in brief: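 HUVEC cells were treated with anti-tumor agent (DMSO solvent) alone or combined with NO-NSAID (ethanol or water solvent), and NO-NSAID solvent controls were used for correction. After 24-48 h of culture, viability was read by CCK-8 to derive proliferative toxicity and how much NO-NSAID mitigated it.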

[1] = tested on: hand-foot syndrome induced by anti-tumor agents; assay: Prevention of hand-foot syndrome induced by anti-tumor agents in rats, NO-NSAID ointment on hind paws (Table 2-2); type: in vivo, SD rats; settings: Rattus norvegicus, topical, read-out: Control rate; for responders at 1 %: ointment 1% wt
Method in brief: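 Female SD rats (8 weeks, ~200 g; 10/group) received anti-tumour agents by daily oral gavage in Cremophor EL:ethanol 1:1 diluted ~3× with PBS. NO-NSAID or blank ointment was applied to hind paws once daily, 4 h restrained, then wiped off. Control rate = blank-group minus treated-group hand-foot syndrome incidence.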

**Q.** Which results are given for `CC(=O)Oc1ccccc1C(=O)OCc1no[n+]([O-])c1C(N)=O` [Compound A6]?
**A.** activation at 100 µM (HUVEC cells; Afatinib (10 μM)): 45%; activation at 100 µM (HUVEC cells; Anlotinib (5 μM)): 50%; activation at 100 µM (HUVEC cells; Apatinib (10 μM)): 41%; activation at 100 µM (HUVEC cells; Axitinib (10 μM)): 22%; activation at 100 µM (HUVEC cells; Cabozantinib (5 μM)): 0%; activation at 100 µM (HUVEC cells; Dabrafenib (10 μM)): 21%; activation at 100 µM (HUVEC cells; Dacomitinib (5 μM)): 75%; activation at 100 µM (HUVEC cells; Encorafenib (5 μM)): 51%; activation at 100 µM (HUVEC cells; Erdafitinib (10 μM)): 56%; activation at 100 µM (HUVEC cells; Everolimus (5 μM)): 52%; activation at 100 µM (HUVEC cells; Famitinib (5 μM)): 66%; activation at 100 µM (HUVEC cells; Fruquintinib (10 μM)): 53%; activation at 100 µM (HUVEC cells; Gefitinib (10 μM)): 77%; activation at 100 µM (HUVEC cells; Infigratinib (15 μM)): 32%; activation at 100 µM (HUVEC cells; Lapatinib (5 μM)): 41%; activation at 100 µM (HUVEC cells; Lenvatinib (10 μM)): 23%; activation at 100 µM (HUVEC cells; Olmutinib (10 μM)): 28%; activation at 100 µM (HUVEC cells; Regorafenib (5 μM)): 66%; activation at 100 µM (HUVEC cells; Selumetinib (5 μM)): 64%; activation at 100 µM (HUVEC cells; Sorafenib (5 μM)): 24%; activation at 100 µM (HUVEC cells; Sunitinib (5 μM)): 58%; activation at 100 µM (HUVEC cells; Vemurafenib (5 μM)): 42%; responders at 1 % ([1]; 120 h, Sorafenib 80 mg/kg once a day, Days 5): 66.7%; responders at 1 % ([1]; 360 h, Encorafenib 80 mg/kg once a day, Days 15): 40%; responders at 1 % ([1]; 432 h, Cabozantinib 50 mg/kg once a day, Days 18): 40%; responders at 3 % ([1]; 432 h, Cabozantinib 50 mg/kg once a day, ointment 3% wt, Days 18): 42.9%
